Values of other authors as cited in patent US20120071554A1, “DEUTERATED 2-PROPYLPENTANOIC ACID COMPOUNDS” (priority 2008, published 2012).

administered dose excreted in the urine as the glucuronide conjugate (adult patients on monotherapy): 30-50%
dose excreted as products of other oxidative mechanisms (adult patients on monotherapy): 15-20%
dose excreted as the products of mitochondrial beta-oxidation (adult patients on monotherapy): over 40%
dose excreted unchanged in the urine (in vivo): Less than 3%
increase of the valproate free-fraction (pediatric patients co-dosed with valproate and aspirin, inhibition of beta-oxidation pathway): 4 fold
SMILES: CCCC(CCC)C(=O)O [Valproate, sodium hydrogen bis(2-propylpentanoate)]
